EC50 data for 16 molecules are collected here from patent US20230348376A1 (TEIJIN PHARMA LIMITED, priority 2020, published 2023).

As a reminder, the EC50 is the concentration giving half of the maximal effect.

SMILES strings stand for the structures.

In this assay the target is T1, human VDR (Homo sapiens, UniProt P11473).
T1 sequence (P11473 1-427): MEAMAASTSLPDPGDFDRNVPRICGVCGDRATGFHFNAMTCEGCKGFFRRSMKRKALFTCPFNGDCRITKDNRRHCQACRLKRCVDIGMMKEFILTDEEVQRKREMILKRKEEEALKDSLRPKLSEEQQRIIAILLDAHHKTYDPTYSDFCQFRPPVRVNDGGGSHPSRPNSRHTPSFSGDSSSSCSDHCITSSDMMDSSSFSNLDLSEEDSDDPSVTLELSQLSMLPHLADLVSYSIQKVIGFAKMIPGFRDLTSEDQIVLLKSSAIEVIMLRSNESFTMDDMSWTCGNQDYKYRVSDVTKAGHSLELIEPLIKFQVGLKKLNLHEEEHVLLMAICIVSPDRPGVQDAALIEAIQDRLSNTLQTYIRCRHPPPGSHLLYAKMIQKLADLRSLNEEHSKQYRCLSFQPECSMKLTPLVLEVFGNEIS
T1 sequence (P19793 1-462 partner): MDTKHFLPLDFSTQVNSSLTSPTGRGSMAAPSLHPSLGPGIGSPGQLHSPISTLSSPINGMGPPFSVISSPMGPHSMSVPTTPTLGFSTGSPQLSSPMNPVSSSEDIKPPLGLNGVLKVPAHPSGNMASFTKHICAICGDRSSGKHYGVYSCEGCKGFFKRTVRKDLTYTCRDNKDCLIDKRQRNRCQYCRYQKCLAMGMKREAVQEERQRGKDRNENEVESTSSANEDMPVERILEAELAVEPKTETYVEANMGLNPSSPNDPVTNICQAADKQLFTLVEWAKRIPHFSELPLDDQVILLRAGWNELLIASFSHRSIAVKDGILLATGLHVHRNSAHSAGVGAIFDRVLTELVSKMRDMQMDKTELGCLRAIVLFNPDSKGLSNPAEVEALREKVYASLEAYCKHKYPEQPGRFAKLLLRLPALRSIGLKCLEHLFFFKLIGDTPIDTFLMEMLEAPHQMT
Nature of the assay: Evaluation of VDR transcription activity in human osteoblasts (HOS cells), luciferase reporter. The note with it: Activity (EC50, VDR transcription activity), HOS cells transfected with human VDR, human RXRα and DR3 luciferase reporter; 21 hours. (In general: Reporter assays use an easily measured gene product as a stand-in for the process of interest.)
In turn, `C=C1/C(=C\C=C2/CCC[C@]3(C)[C@@H]([C@@H](C)CN4CCCC4)CC[C@@H]23)C[C@@H](O)C[C@@H]1O` [Compound B009, (1R,3S,Z)-5-(2-((1R,3aS,7aR,E)-7a-methyl-1-((R)-1-(pyrrolidin-1-yl)propan-2-yl)octahydro-4H-inden-4-ylidene)ethylidene)-4-methylenecyclohexane-1,3-diol] returned an EC50 of 100 to 1000 nM.

In turn, `C=C1/C(=C\C=C2/CCC[C@]3(C)[C@@H]([C@@H](C)CN4CC[C@H](C)C4)CC[C@@H]23)C[C@@H](O)C[C@@H]1O` [Compound B010, (1R,3S,Z)-5-(2-((1R,3aS,7aR,E)-7a-methyl-1-((R)-1-((S)-3-methylpyrrolidin-1-yl)propan-2-yl)octahydro-4H-inden-4-ylidene)ethylidene)-4-methylenecyclohexane-1,3-diol] returned an EC50 of 10 to 100 nM.

The molecule `C=C1/C(=C\C=C2/CCC[C@]3(C)[C@@H]([C@@H](C)CN4CC[C@@H](C)C4)CC[C@@H]23)C[C@@H](O)C[C@@H]1O` [Compound B011, (1R,3S,Z)-5-(2-((1R,3aS,7aR,E)-7a-methyl-1-((R)-1-((R)-3-methylpyrrolidin-1-yl)propan-2-yl)octahydro-4H-inden-4-ylidene)ethylidene)-4-methylenecyclohexane-1,3-diol] gave a concentration for a half-maximal effect (EC50) of 10 to 100 nM.

Molecule `C[C@H](CN1CC[C@H](F)C1)[C@H]1CC[C@H]2/C(=C/C=C3C[C@@H](O)C[C@H](O)C3)CCC[C@]12C` [Compound B012, (1R,3R)-5-(2-((1R,3aS,7aR,E)-1-((S)-1-((S)-3-fluoropyrrolidin-1-yl)propan-2-yl)-7a-methyloctahydro-4H-inden-4-ylidene)ethylidene)cyclohexane-1,3-diol] showed an EC50 of 100 to 1000 nM.

Regarding `C[C@H](CCN1CC[C@H](F)C1)[C@H]1CC[C@H]2/C(=C/C=C3C[C@@H](O)C[C@H](O)C3)CCC[C@]12C` [Compound B014, (1R,3R)-5-(2-((1R,3aS,7aR,E)-1-((R)-4-((S)-3-fluoropyrrolidin-1-yl)butan-2-yl)-7a-methyloctahydro-4H-inden-4-ylidene)ethylidene)cyclohexane-1,3-diol], the EC50 is 10 to 100 nM.

The molecule `C[C@H](CCN1CC[C@@H](F)C1)[C@H]1CC[C@H]2/C(=C/C=C3C[C@@H](O)C[C@H](O)C3)CCC[C@]12C` [Compound B015, (1R,3R)-5-(2-((1R,3aS,7aR,E)-1-((R)-4-((R)-3-fluoropyrrolidin-1-yl)butan-2-yl)-7a-methyloctahydro-4H-inden-4-ylidene)ethylidene)cyclohexane-1,3-diol] registered a 50% effective concentration (EC50) of 10 to 100 nM.

Turning to `C[C@H](CCCN1CC[C@H](F)C1)[C@H]1CC[C@H]2/C(=C/C=C3C[C@@H](O)C[C@H](O)C3)CCC[C@]12C` [Compound B016, (1R,3R)-5-(2-((1R,3aS,7aR,E)-1-((R)-5-((S)-3-fluoropyrrolidin-1-yl)pentan-2-yl)-7a-methyloctahydro-4H-inden-4-ylidene)ethylidene)cyclohexane-1,3-diol], the half-maximal effective concentration (EC50) lay within 10 to 100 nM.

On to `C[C@H](CCCN1CC[C@@H](F)C1)[C@H]1CC[C@H]2/C(=C/C=C3C[C@@H](O)C[C@H](O)C3)CCC[C@]12C` [Compound B017, (1R,3R)-5-(2-((1R,3aS,7aR,E)-1-((R)-5-((R)-3-fluoropyrrolidin-1-yl)pentan-2-yl)-7a-methyloctahydro-4H-inden-4-ylidene)ethylidene)cyclohexane-1,3-diol], for which the concentration giving a half-maximal response (EC50) lay in the range of 10 to 100 nM.

In turn, `C=C1/C(=C\C=C2/CCC[C@]3(C)[C@@H]([C@H](C)CN4CC[C@@H](C(F)F)C4)CC[C@@H]23)C[C@@H](O)[C@H](C)[C@@H]1O` [Compound B025, (1R,2S,3 S,Z)-5-(2-((1R,3aS,7aR,E)-1-((S)-1-((R)-3-(difluoromethyl)pyrrolidin-1-yl)propan-2-yl)-7a-methyloctahydro-4H-inden-4-ylidene)ethylidene)-2-methyl-4-methylenecyclohexane-1,3-diol] displayed a concentration giving a half-maximal response (EC50) of 10 to 100 nM.

Regarding `C=C1/C(=C\C=C2/CCC[C@]3(C)[C@@H]([C@H](C)CN4CC[C@H](C(C)(F)F)C4)CC[C@@H]23)C[C@@H](O)C[C@@H]1O` [Compound B028, (1R,3S,Z)-5-(2-((1R,3aS,7aR,E)-1-((S)-1-((S)-3-(1,1-difluoroethyl)pyrrolidin-1-yl)propan-2-yl)-7a-methyloctahydro-4H-inden-4-ylidene)ethylidene)-4-methylenecyclohexane-1,3-diol], the EC50 was less than 1 nM.

With `C[C@H](CN1CC[C@H](C(C)(F)F)C1)[C@H]1CC[C@H]2/C(=C/C=C3C[C@@H](O)C[C@H](O)C3)CCC[C@]12C` [Compound B030, (1R,3R)-5-(2-((1R,3aS,7aR,E)-1-((S)-1-((S)-3-(1,1-difluoroethyl)pyrrolidin-1-yl)propan-2-yl)-7a-methyloctahydro-4H-inden-4-ylidene)ethylidene)cyclohexane-1,3-diol], the EC50 lay in the range of 10 to 100 nM.

As to `C=C1[C@H](O)CC(=C/C=C2\CCC[C@]3(C)[C@@H]([C@H](C)CN4CC[C@H](C(C)(F)F)C4)CC[C@@H]23)C[C@H]1O` [Compound B031, (1R,3R)-5-(2-((1R,3aS,7aR,E)-1-((S)-1-((S)-3-(1,1-difluoroethyl)pyrrolidin-1-yl)propan-2-yl)-7a-methyloctahydro-4H-inden-4-ylidene)ethylidene)-2methylenecyclohexane-1,3-diol], the 50% effective concentration (EC50) lay within 1 to 10 nM.

For `C=C1/C(=C\C=C2/CCC[C@]3(C)[C@@H]([C@H](C)CN4CC[C@@H](C(C)(F)F)C4)CC[C@@H]23)C[C@@H](O)C[C@@H]1O` [Compound B032, (1R,3S,Z)-5-(2-((1R,3aS,7aR,E)-1-((S)-1-((R)-3-(1,1-difluoroethyl)pyrrolidin-1-yl)propan-2-yl)-7a-methyloctahydro-4H-inden-4-ylidene)ethylidene)-4-methylenecyclohexane-1,3-diol], the half-maximal effective concentration (EC50) is 1 to 10 nM.

In turn, `C=C1/C(=C\C=C2/CCC[C@]3(C)[C@@H]([C@H](C)CN4CC[C@@H](C(C)(F)F)C4)CC[C@@H]23)C[C@@H](O)[C@H](C)[C@@H]1O` [Compound B033, (1R,2S,3S,Z)-5-(2-((1R,3aS,7aR,E)-1-((S)-1-((R)-3-(1,1-difluoroethyl)pyrrolidin-1-yl)propan-2-yl)-7a-methyloctahydro-4H-inden-4-ylidene)ethylidene)-2-methyl-4-methylenecyclohexane-1,3-diol] had a 50% effective concentration (EC50) of 1 to 10 nM.

On to `C=C1[C@H](O)CC(=C/C=C2\CCC[C@]3(C)[C@@H]([C@H](C)CN4CC[C@@H](C(C)(F)F)C4)CC[C@@H]23)C[C@H]1O` [Compound B035, (1R,3R)-5-(2-((1R,3aS,7aR,E)-1-((S)-1-((R)-3-(1,1-difluoroethyl)pyrrolidin-1-yl)propan-2-yl)-7a-methyloctahydro-4H-inden-4-ylidene)ethylidene)-2-methylenecyclohexane-1,3-diol], for which the EC50 was in the range of 1 to 10 nM.

`C=C1/C(=C\C=C2/CCC[C@]3(C)[C@@H]([C@H](C)CN4CC[C@H](CC(F)F)C4)CC[C@@H]23)C[C@@H](O)[C@H](C)[C@@H]1O` [Compound B038, (1R,2S,3S,Z)-5-(2-((1R,3aS,7aR,E)-1-((S)-1-((R)-3-(2,2-difluoroethyl)pyrrolidin-1-yl)propan-2-yl)-7a-methyloctahydro-4H-inden-4-ylidene)ethylidene)-2-methyl-4-methylenecyclohexane-1,3-diol] came in with an EC50 of 10 to 100 nM.
